Common to all, as to format: in vivo, nude mice
The test system of assay [1] is human uterine sarcoma cell line MES-SA xenograft. The assay can be described thus: MES-SA soft tissue sarcoma xenograft as monotherapy (FIG. 17). The note with it: 180 μg/kg i.v. Day 1 and Day 8. On the procedure:
A human uterine sarcoma cell line MES-SA, which had been cultured in an RPMI-1640 containing 10% FBS, and penicillin-streptomycin, was adjusted to a concentration of 2×10^8 cells/mL with Hanks' Balanced Salt Solution to prepare a cell suspension, and the suspension was mixed with Geltrex® (Thermo Fisher Scientific Inc., #A1413202) in a ratio of 1:1 to prepare a cell suspension in a concentration of 1×10^8 cells/mL. The cell suspension was inoculated in a volume of 100 μL into a subcutaneous part of a right flank of nude mice, 6 weeks of ages (CAnN.Cg-Foxnlnu/CrlCrlj, female, Charles River Laboratories Japan Inc.). Six days after cell inoculation (Day 1), the shortest diameter and the longest diameter of a tumor in each mouse were measured by using an electronic digital caliper (Digimatic™ caliper, Mitutoyo Corporation), so as to calculate the volume of the tumor in accordance with the following calculation formulae: […]
On the basis of the volumes of tumors obtained on Day 1, the mice were grouped such that averages of the tumor volumes were substantially equal among the groups. The experiment was conducted on groups each consisting of 6 mice. The test compound was dissolved in DMSO and a solution was stored in the freezer before use. Immediately before the administration, the stock solution was diluted with saline. […]

Assay [2] deals with α-SMA-positive CAFs in FaDu tumor. The assay can be described thus: Effect on α-SMA-positive CAFs in the FaDu subcutaneous model (FIG. 14). On the procedure:
A human squamous cell carcinoma of the head and neck (SCCHN) cell line FaDu, which had been cultured in an RPMI-1640 medium containing 10% FBS, and penicillin-streptomycin (culture medium), was adjusted to a concentration of 5×10^7 cells/mL with culture medium to prepare a cell suspension. The cell suspension was inoculated in a volume of 100 μL into a subcutaneous part of a right flank of nude mice, 6 weeks of ages (CAnN.Cg-Foxnlnu/CrlCrlj, female, Charles River Laboratories Japan, Inc.). Ten days after cell inoculation, the mice were grouped such that averages of the tumor volumes were substantially equal among the groups. The experiment was conducted on groups each consisting of 5 mice. Each test compound was dissolved in DMSO and a solution was stored in the freezer before use. Immediately before the administration, the stock solution was diluted with saline. The test compound in saline was intravenously administered at 20 μg/kg, 60 μg/kg, or 180 μg/kg. […] The area of α-SMA-positive region in the whole tumor was quantified by counting the α-SMA-positive objects using inform 2 software (PerkinElmer Inc.) Area of the tumor region was measured by assessing the hematoxylin-staining area using inform 2 software (PerkinElmer Inc.). […] A suppression rate of the α-SMA- positive area of the test compound-dosing group was calculated with the below formula: […]

Assay [3] relates to HCCl806 subcutaneous xenograft. In words: Antitumor activity against HCC1806 subcutaneous xenograft as monotherapy. To be noted: 0.18 mg/kg i.v., Q7Dx2. The method, then:
A human breast cancer cell line HCCl806, which had been cultured in an RPMI-1640 medium containing 10% FBS, and penicillin and streptomycin, was adjusted to a concentration of 1×10^8 cells/mL with PBS to prepare a cell suspension, and the suspension was mixed with Matrigel™ (BD Bioscience, #366237) in a ratio of 1:1 to prepare a cell suspension in a concentration of 5×10^7 cell/mL. The cell suspension was inoculated in a volume of 100 μL into a subcutaneous part of a right flank of nude mice, 5 weeks of ages (CAnN.Cg-Foxnlnu/CrlCrlj, female, Charles River Laboratories Japan, Inc.). Twelve days after cell inoculation, the shortest diameter and the longest diameter of a tumor in each mouse were measured by using an electronic digital caliper (Digimatic™ caliper, Mitutoyo Corporation), so as to calculate the volume of the tumor in accordance with the following calculation formulae: […]
On the basis of the volumes of tumors obtained on the first day of administration, the mice were grouped such that averages of the tumor volumes were substantially equal among the groups. The experiment was conducted on groups each consisting of 6 mice. Test compound was dissolved in saline and intravenously administered at 0.18 mg/kg once a week for 2 weeks (Q7Dx2 schedule).

With `C=C1C[C@@H]2CC[C@@]34C[C@H]5O[C@H]6[C@@H](O3)[C@H]3O[C@H](CC[C@@H]3O[C@H]6C5O4)CC(=O)O[C@@H]3[C@@H](C)[C@@H]4O[C@@H]5C[C@]6(C[C@@H]7O[C@]8(C[C@H](C)[C@@H]9O[C@H](CN)[C@H](O)C[C@@H]9O8)C[C@H](C)[C@@H]7O6)O[C@@H]5C[C@@H]4O[C@H]3C[C@H]3O[C@@H](CC[C@@H]1O2)C[C@@H](C)C3=C` (stereo in doubt) [Compound (1)], the antitumor activity result in assay [1] is given as “tumor growth delay”. The α-SMA positive area entry in assay [2] (single i.v. dose of 180 μg/kg, Day 6) is recorded as “significantly reduced the α-SMA positive area”; in assay [2] (single i.v. dose of 60 and 180 μg/kg, Day 3), “significantly reduced the α-SMA positive area”. Besides, the “Tumor Regression (%)” value in assay [3] turned out to be 90%.

For the origin of these results see US20240309014A1, “MACROCYCLIC COMPOUNDS AND USES THEREOF” (President and Fellows of Harvard College, priority 2017, published 2024).
